From patent publication US20230144619A1, “SALT OF ARYLAMINOPURINE DERIVATIVE, PREPARATION METHOD THEREFOR AND USE THEREOF” (CSPC Zhongqi Pharmaceutical Technology (Shijiazhuang) Co., …, priority 2020, published 2023)
Counter-ions that a name gives are not always drawn.

Assay: Solubility test (UV spectrophotometer, saturated solutions shaken 24 hours)
Format: physicochemical
Conditions: 25° C.
Method: Detection instrument: Ultraviolet spectrophotometer/Evolution 300
The following solutions with pH=1.2, pH=4.5, and pH=6.8 and water were used as the solvent, and the solvent preparation process was as follows:
(1) pH=1.2 hydrochloric acid solution: To 7.65 mL of hydrochloric acid was added 1000 mL of water, and the mixture was shaken uniformly to obtain the target solution.
(2) pH=4.5 phosphate buffer solution: 6.8 g of potassium dihydrogen phosphate was taken and diluted with water to 1000 mL, and the mixture was shaken uniformly to obtain the target solution.
(2) pH=6.8 phosphate buffer solution: 6.8 g of potassium dihydrogen phosphate and 0.896 g of sodium hydroxide were taken and diluted with water to 1000 mL, and the mixture was shaken uniformly to obtain the target solution.
(4) Water: purified water
Test tubes with stopper were taken, and 10 mL of dissolution media at various pH values were precisely added to the test tubes respectively, and excessive stock drugs were added until supersaturated solutions were formed. The adding amounts were recorded. The solutions were shaken uniformly, sealed with stoppers, and shaken for 24 hours in a shaker. 2 mL of solutions were taken out at different time points respectively, and centrifuged. The resulting supernatants were taken, filtered, and the subsequent filtrates were taken for later use.
The above-mentioned saturated solutions in different solvents were taken, and solvents were added to dilute the solutions to certain volumes. The absorbances were measured at a wavelength of 287 nm.
Preparation of a solution of the reference substance: an appropriate amount of the compound represented by Formula 1 was taken as the reference substance, and precisely weighed. A solvent was added to dissolve and dilute the reference compound to produce a solution containing about 10 μg of the compound represented by Formula 1 per 1 mL. The absorbance was measured at a wavelength of 287 nm to calculate the solubility.
The salts obtained in Examples 1 and 3-17 and the compound represented by Formula 1 were subjected to the solubility test in media and the test results were shown in the following table: […]

CC(C)n1c(Nc2cccnc2)nc2cnc(Nc3ccc(N4CCN(C)CC4)cc3)nc21 [Example 1, arylaminopurine derivative.trihydrochloride.pentahydrate]
Solubility, Water medium pH = 1.2 (pH=1.2 hydrochloric acid solution): 33.89 mg/mL | Solubility, Water medium pH = 4.5 (pH=4.5 phosphate buffer solution): 47.27 mg/mL | Solubility, Water medium pH = 6.8 (pH=6.8 phosphate buffer solution): 50.62 mg/mL | Solubility, Water medium (water (purified water)): 40.41 mg/mL
